Key:
Assay in all cases: Test D controlled growth environment herbicide test, pre- and postemergence
Type in all cases: in vivo
[1] = system: galium (catchweed bedstraw, Galium aparine)
Summary of the method: (§1)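 Species sown in silt loam and sprayed preemergence, or grown in peat-based medium to 2–18 cm (1- to 4-leaf stage) and sprayed postemergence, with compounds in non-phytotoxic solvent plus surfactant. Visual injury scored versus controls after 14–21 d in a controlled environment, 0 (no effect) to 100 (complete control).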

[2] = system: mustard, wild (wild mustard, Sinapis arvensis)
Summary of the method: as §1

[3] = system: buckwheat, wild (wild buckwheat, Polygonum convolvulus)
Summary of the method: as §1

[4] = system: field poppy (Papaver rhoeas)
Summary of the method: as §1

[5] = system: barley, winter (winter barley, Hordeum vulgare)
Summary of the method: as §1

[6] = system: pigweed (Amaranthus retroflexus)
Summary of the method: as §1

[7] = system: oilseed rape (Brassica napus)
Summary of the method: as §1

[8] = system: radish, wild (wild radish, Raphanus raphanistrum)
Summary of the method: as §1

[9] = system: barley, spring (spring barley, Hordeum vulgare)
Summary of the method: as §1

[10] = system: oat, wild (wild oat, Avena fatua)
Summary of the method: as §1

[11] = system: bluegrass (annual bluegrass, Poa annua)
Summary of the method: as §1

[12] = system: chamomile (scentless chamomile, Matricaria inodora)
Summary of the method: as §1

[13] = system: speedwell (bird's-eye speedwell, Veronica persica)
Summary of the method: as §1

[14] = Postemergence, 31 g ai/ha, scale 0 to 100 (0 no effect, 100 complete control)
[15] = Postemergence, 125 g ai/ha, visual rating on scale 0 (no effect) to 100 (complete control), 14 to 21 d
[16] = Postemergence, 250 g ai/ha, scale 0 to 100 (0 no effect, 100 complete control)
[17] = Preemergence, 125 g ai/ha, scale 0 to 100 (0 no effect, 100 complete control)
[18] = Preemergence, 250 g ai/ha, scale 0 to 100 (0 no effect, 100 complete control)
[19] = postemergence, 62 g ai/ha, scale 0 to 100, 0 no effect, 100 complete control
[20] = Preemergence, 62 g ai/ha, scale 0 to 100 (0 no effect, 100 complete control)

SMILES: CCC(=O)Oc1c(C)nn(C)c(=O)c1-c1c(C)sc2ccc(Cl)cc12 [Compound 109]
- Galium plant response rating [1, 14]: 100
- Plant response rating, Galium [1, 15]: 100
- Plant response rating, Galium [1, 16]: 100
- Plant response rating (scale of 0 to 100), Galium ([1]; Preemergence, 31 g ai/ha): 40
- Plant response rating (scale of 0 to 100), Galium ([1]; Preemergence, 62 g ai/ha): 75
- Plant response rating, Galium [1, 17]: 100
- Plant response rating, Galium [1, 18]: 100
- Plant response rating, Galium [1, 19]: 100
- Mustard, Wild plant response rating [2, 14]: 60
- Plant response rating, Mustard, Wild [2, 15]: 90
- Plant response rating, Mustard, Wild [2, 16]: 100
- Plant response rating (scale of 0 to 100), Mustard, Wild ([2]; Preemergence, 31 g ai/ha): 5
- Plant response rating (scale of 0 to 100), Mustard, Wild ([2]; Preemergence, 62 g ai/ha): 75
- Plant response rating, Mustard, Wild [2, 17]: 100
- Plant response rating, Mustard, Wild [2, 18]: 100
- Plant response rating, Mustard, Wild [2, 19]: 85
- Buckwheat, Wild plant response rating [3, 14]: 95
- Plant response rating, Buckwheat, Wild [3, 15]: 100
- Plant response rating, Buckwheat, Wild [3, 16]: 100
- Plant response rating (scale of 0 to 100), Buckwheat, Wild ([3]; Preemergence, 31 g ai/ha): 0
- Plant response rating, Buckwheat, Wild [3, 20]: 20
- Plant response rating, Buckwheat, Wild [3, 17]: 30
- Plant response rating, Buckwheat, Wild [3, 18]: 75
- Plant response rating, Buckwheat, Wild [3, 19]: 95
- Field Poppy plant response rating [4, 14]: 45
- Plant response rating, Field Poppy [4, 15]: 75
- Plant response rating, Field Poppy [4, 16]: 85
- Plant response rating (scale of 0 to 100), Field Poppy ([4]; Preemergence, 31 g ai/ha): 100
- Plant response rating (scale of 0 to 100), Field Poppy ([4]; Preemergence, 62 g ai/ha): 100
- Plant response rating, Field Poppy [4, 17]: 100
- Plant response rating, Field Poppy [4, 18]: 100
- Plant response rating, Field Poppy [4, 19]: 50
- Barley, Winter plant response rating [5, 14]: 5
- Plant response rating, Barley, Winter [5, 15]: 5
- Plant response rating, Barley, Winter [5, 16]: 20
- Plant response rating (scale of 0 to 100), Barley, Winter ([5]; Preemergence, 31 g ai/ha): 0
- Plant response rating, Barley, Winter [5, 20]: 0
- Plant response rating, Barley, Winter [5, 17]: 0
- Plant response rating, Barley, Winter [5, 18]: 10
- Plant response rating, Barley, Winter [5, 19]: 0
- Pigweed plant response rating [6, 14]: 85
- Plant response rating, Pigweed [6, 15]: 100
- Plant response rating, Pigweed [6, 16]: 100
- Plant response rating (scale of 0 to 100), Pigweed ([6]; Preemergence, 31 g ai/ha): 100
- Plant response rating (scale of 0 to 100), Pigweed ([6]; Preemergence, 62 g ai/ha): 100
- Plant response rating, Pigweed [6, 17]: 100
- Plant response rating, Pigweed [6, 18]: 100
- Plant response rating, Pigweed [6, 19]: 85
- Oilseed Rape plant response rating [7, 14]: 65
- Plant response rating, Oilseed Rape [7, 15]: 75
- Plant response rating, Oilseed Rape [7, 16]: 85
- Plant response rating (scale of 0 to 100), Oilseed Rape ([7]; Preemergence, 31 g ai/ha): 15
- Plant response rating (scale of 0 to 100), Oilseed Rape ([7]; Preemergence, 62 g ai/ha): 40
- Plant response rating, Oilseed Rape [7, 17]: 75
- Plant response rating, Oilseed Rape [7, 18]: 85
- Plant response rating, Oilseed Rape [7, 19]: 70
- Radish, Wild plant response rating [8, 14]: 75
- Plant response rating, Radish, Wild [8, 15]: 90
- Plant response rating, Radish, Wild [8, 16]: 100
- Plant response rating (scale of 0 to 100), Radish, Wild ([8]; Preemergence, 31 g ai/ha): 25
- Plant response rating (scale of 0 to 100), Radish, Wild ([8]; Preemergence, 62 g ai/ha): 75
- Plant response rating, Radish, Wild [8, 17]: 90
- Plant response rating, Radish, Wild [8, 18]: 95
- Plant response rating, Radish, Wild [8, 19]: 75
- Barley, Spring plant response rating [9, 14]: 0
- Plant response rating, Barley, Spring [9, 15]: 10
- Plant response rating, Barley, Spring [9, 16]: 25
- Plant response rating (scale of 0 to 100), Barley, Spring ([9]; Preemergence, 31 g ai/ha): 0
- Plant response rating, Barley, Spring [9, 20]: 0
- Plant response rating, Barley, Spring [9, 17]: 5
- Plant response rating, Barley, Spring [9, 18]: 5
- Plant response rating, Barley, Spring [9, 19]: 5
- Oat, Wild plant response rating [10, 14]: 95
- Plant response rating, Oat, Wild [10, 15]: 95
- Plant response rating, Oat, Wild [10, 16]: 100
- Plant response rating (scale of 0 to 100), Oat, Wild ([10]; Preemergence, 31 g ai/ha): 75
- Plant response rating (scale of 0 to 100), Oat, Wild ([10]; Preemergence, 62 g ai/ha): 80
- Plant response rating, Oat, Wild [10, 17]: 90
- Plant response rating, Oat, Wild [10, 18]: 90
- Plant response rating, Oat, Wild [10, 19]: 95
- Bluegrass plant response rating [11, 14]: 5
- Plant response rating, Bluegrass [11, 15]: 25
- Plant response rating, Bluegrass [11, 16]: 45
- Plant response rating (scale of 0 to 100), Bluegrass ([11]; Preemergence, 31 g ai/ha): 10
- Plant response rating, Bluegrass [11, 20]: 20
- Plant response rating, Bluegrass [11, 17]: 30
- Plant response rating, Bluegrass [11, 18]: 60
- Plant response rating, Bluegrass [11, 19]: 15
- Chamomile plant response rating [12, 14]: 80
- Plant response rating, Chamomile [12, 15]: 95
- Plant response rating, Chamomile [12, 16]: 100
- Plant response rating, Chamomile [12, 19]: 85
- Speedwell plant response rating [13, 14]: 50
- Plant response rating, Speedwell [13, 15]: 75
- Plant response rating, Speedwell [13, 16]: 100
- Plant response rating, Speedwell [13, 19]: 60

— patent publication US10597388B2, “Pyridazinone herbicides” (FMC CORPORATION, priority 2014, dated 2020)
